From PMC4450297, “Screening Active Compounds from Garcinia Species Native to China Reveals Novel Compounds Targeting the STAT/JAK Signaling Pathway” (BioMed Research International, 2015)
Read-outs that look alike come from different tables or passages of the source.

Tests used:
Tyk2 = target: T1, Tyk2 (Homo sapiens, UniProt P29597); assay: Microfluidic mobility shift enzyme assay; format: biochemical
T1 construct: purchased Carna Bioscience, Inc. (Japan)
Method: (§1) The microfluidic mobility shift enzyme assay was performed in an on-chip incubation mode on a Caliper LabChip 2000 Drug Discovery System (Caliper Life Sciences, Hopkinton, MA). The extent of inhibition by the compounds is measured directly by quantifying the level of both unphosphorylated peptide substrate and phosphorylated product after electrophoretic separation using Caliper's LabChip assay technology. To evaluate the compounds for their target and the mechanism by which the compound affects JAK enzyme activity, the compounds were tested against JAK family kinases (JAK1, JAK2, JAK3, and Tyk2) with the Caliper microfluidic mobility-shift platform. The JAK family kinase enzymes and the FAM-labeled substrates were purchased from Carna Bioscience, Inc. (Japan) and Caliper Bioscience (US), respectively.
(§2) For JAK kinase activity measurement, the test compounds were diluted freshly with assay buffer (100 mM HEP ES, 10 mM MgCl2, 1.5 mM betaine, 0.015% Brij, and 25 mM β-glycerophosphate) and added to 384-well plates. FAM-labeled peptide substrate and ATP in assay buffer were added to the wells. After that, JAK enzymes prepared in assay buffer were also added to the wells and mixed to start the reaction. After a period of incubation at room temperature, the reaction was stopped by stop solution (500 mM EDTA). Finally, the plate was put on a Caliper LabChip 2000 system and a droplet of the reaction mixture was applied for electrophoretic separation in the chips of the machine. The enzyme conversion data then was read out for analysis.

JAK2 = target: T2, JAK2 (Homo sapiens, UniProt O60674); assay: Microfluidic mobility shift enzyme assay; format: biochemical
T2 construct: purchased Carna Bioscience, Inc. (Japan)
T2 sequence (O60674 whole entry): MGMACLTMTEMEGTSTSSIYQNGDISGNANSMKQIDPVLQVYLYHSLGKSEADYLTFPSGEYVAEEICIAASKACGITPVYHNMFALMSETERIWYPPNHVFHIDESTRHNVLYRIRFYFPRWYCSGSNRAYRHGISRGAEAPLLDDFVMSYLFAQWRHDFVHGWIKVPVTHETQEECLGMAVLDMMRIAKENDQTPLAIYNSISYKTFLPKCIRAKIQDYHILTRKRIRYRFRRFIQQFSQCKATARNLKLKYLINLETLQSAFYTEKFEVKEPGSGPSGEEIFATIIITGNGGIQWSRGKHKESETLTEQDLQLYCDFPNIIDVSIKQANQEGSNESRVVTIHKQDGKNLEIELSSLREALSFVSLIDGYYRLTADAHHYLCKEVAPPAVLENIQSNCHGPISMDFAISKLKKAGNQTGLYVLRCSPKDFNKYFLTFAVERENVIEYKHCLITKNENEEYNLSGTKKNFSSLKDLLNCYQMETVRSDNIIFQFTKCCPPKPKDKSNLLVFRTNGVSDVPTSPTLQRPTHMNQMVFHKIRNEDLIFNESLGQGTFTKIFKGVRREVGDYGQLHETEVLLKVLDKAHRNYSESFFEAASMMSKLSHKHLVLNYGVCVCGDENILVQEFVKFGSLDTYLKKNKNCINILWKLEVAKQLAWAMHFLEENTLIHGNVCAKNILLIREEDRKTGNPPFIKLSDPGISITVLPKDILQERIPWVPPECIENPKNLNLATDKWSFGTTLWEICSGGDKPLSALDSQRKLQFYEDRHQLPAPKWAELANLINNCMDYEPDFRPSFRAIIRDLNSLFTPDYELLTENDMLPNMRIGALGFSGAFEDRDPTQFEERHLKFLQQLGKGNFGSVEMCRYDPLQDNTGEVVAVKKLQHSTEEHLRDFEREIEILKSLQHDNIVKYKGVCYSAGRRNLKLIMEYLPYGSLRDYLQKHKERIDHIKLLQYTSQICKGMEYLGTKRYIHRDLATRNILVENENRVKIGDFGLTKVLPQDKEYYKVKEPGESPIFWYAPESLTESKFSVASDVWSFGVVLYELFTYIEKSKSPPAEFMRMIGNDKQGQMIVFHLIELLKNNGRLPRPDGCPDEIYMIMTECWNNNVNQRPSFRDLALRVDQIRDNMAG
Method: as §1, §2

JAK3 = target: T3, JAK3 (Homo sapiens, UniProt P52333); assay: Microfluidic mobility shift enzyme assay; format: biochemical
T3 construct: purchased Carna Bioscience, Inc. (Japan)
T3 sequence (P52333 1-1124): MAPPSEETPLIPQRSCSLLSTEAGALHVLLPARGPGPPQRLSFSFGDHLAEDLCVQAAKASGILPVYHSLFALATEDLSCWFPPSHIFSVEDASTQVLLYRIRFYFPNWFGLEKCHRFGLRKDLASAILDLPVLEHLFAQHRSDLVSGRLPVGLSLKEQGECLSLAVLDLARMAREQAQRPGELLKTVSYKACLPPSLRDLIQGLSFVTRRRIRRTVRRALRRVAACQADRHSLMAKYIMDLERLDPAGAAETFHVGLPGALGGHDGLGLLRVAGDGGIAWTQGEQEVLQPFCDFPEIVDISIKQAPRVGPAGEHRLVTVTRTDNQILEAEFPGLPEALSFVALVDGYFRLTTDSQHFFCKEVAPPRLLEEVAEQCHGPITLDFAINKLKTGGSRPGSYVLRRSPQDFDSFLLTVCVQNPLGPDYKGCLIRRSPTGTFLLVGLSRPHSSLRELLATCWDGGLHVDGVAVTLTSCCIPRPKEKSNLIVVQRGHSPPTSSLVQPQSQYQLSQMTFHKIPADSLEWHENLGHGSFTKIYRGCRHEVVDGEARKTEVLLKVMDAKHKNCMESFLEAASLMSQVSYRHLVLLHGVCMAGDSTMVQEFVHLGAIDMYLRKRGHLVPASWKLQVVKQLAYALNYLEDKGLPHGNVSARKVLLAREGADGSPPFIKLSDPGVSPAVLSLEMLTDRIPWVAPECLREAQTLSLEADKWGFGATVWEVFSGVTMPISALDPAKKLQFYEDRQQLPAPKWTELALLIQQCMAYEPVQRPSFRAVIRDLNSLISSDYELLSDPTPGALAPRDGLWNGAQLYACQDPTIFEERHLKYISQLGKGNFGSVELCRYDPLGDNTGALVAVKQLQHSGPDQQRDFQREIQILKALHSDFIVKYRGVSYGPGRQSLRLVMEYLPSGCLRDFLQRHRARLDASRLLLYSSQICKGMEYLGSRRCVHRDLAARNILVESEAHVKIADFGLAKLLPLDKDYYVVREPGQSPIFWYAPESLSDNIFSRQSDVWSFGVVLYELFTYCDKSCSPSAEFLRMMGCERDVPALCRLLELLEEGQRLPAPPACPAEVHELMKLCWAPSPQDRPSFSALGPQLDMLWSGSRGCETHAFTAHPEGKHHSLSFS
Method: as §1, §2

JAK1 = target: T4, JAK1 (Homo sapiens, UniProt P23458); assay: Microfluidic mobility shift enzyme assay; format: biochemical
T4 construct: purchased Carna Bioscience, Inc. (Japan)
T4 sequence (P23458 whole entry): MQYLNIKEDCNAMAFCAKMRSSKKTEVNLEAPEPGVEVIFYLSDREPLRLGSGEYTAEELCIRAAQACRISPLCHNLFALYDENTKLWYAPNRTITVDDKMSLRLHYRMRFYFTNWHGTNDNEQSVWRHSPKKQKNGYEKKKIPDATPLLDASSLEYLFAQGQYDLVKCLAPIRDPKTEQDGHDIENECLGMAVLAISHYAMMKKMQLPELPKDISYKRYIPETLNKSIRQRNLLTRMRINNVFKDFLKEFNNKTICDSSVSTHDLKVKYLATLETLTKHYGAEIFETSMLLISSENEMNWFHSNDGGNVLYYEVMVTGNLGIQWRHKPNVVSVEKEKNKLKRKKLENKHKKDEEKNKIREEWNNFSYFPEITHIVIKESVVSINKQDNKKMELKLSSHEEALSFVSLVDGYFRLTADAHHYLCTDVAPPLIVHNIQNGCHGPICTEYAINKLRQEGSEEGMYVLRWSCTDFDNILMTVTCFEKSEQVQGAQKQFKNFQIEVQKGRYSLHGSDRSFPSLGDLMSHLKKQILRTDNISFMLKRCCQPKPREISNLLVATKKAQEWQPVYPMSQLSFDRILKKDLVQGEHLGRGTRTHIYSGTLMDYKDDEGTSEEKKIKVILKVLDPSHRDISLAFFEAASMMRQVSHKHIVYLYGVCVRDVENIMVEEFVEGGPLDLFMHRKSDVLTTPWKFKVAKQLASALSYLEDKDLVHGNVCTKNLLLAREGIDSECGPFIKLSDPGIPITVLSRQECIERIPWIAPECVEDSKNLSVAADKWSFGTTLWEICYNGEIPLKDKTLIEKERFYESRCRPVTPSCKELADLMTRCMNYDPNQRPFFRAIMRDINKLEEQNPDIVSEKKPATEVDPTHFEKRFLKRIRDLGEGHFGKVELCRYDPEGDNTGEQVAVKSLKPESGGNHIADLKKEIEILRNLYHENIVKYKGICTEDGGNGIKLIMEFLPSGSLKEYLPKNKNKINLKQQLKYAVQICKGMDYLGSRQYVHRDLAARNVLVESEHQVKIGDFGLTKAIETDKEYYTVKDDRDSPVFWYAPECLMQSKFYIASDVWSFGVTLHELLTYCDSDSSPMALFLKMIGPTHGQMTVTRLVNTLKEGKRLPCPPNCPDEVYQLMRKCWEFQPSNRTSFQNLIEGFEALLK
Method: as §1, §2

NCI-H1650 cells [1] = assay: Apoptosis induction assay (Cell Death Detection ELISA); format: cell-based, human; settings: for effect of Z-VAD cotreatment on compound-induced oligonucleosomal fragmentation: NCI-H1650 cells, Z-VAD 10 μmol/L; for NCI-H1650 cells that underwent rapid apoptosis: after 8 h
Method: Apoptosis induction assays were performed after 8 or 24 h incubation with compounds using the Cell Death Detection ELISA assay (Roche). Apoptosis induction is represented relative to DMSO-treated controls (set at 1.0). Error bars denote the SEM.

NCI-H1650 cells [2] = assay: Soft-agar colony formation assay; format: cell-based; settings: Homo sapiens, 168 h; NCI-H1650 cells in soft agar, one week, Alamar Blue; read-out: IC50, cell colony formation
Method: NCI-H1650 cells were plated in soft agar (Takara, Japan) at a density of 4000 cells/well in a 96-well plate. For the base layer, 1.2% agar stock solution was melted in an autoclave, cooled to 40°C in a water bath, and then mixed with RPMI1640 medium to obtain a solution of 0.6% agar in RPMI1640 containing 10% FBS. A cell suspension placed on the top layer was composed of RPMI1640 with 10% FBS and 0.4% agarose in each well. Then, the cells were incubated overnight. Compounds were added into the wells, and the NCI-H1650 cells were incubated for one week. After 7 days, alamar blue was added to the agar plate wells containing NCI-H1650 cell, and the plates were returned to the incubator. The fluorescence intensity (excitation 560 nm, emission 590 nm) was measured after 24 h.

T1 sequence (P29597 whole entry): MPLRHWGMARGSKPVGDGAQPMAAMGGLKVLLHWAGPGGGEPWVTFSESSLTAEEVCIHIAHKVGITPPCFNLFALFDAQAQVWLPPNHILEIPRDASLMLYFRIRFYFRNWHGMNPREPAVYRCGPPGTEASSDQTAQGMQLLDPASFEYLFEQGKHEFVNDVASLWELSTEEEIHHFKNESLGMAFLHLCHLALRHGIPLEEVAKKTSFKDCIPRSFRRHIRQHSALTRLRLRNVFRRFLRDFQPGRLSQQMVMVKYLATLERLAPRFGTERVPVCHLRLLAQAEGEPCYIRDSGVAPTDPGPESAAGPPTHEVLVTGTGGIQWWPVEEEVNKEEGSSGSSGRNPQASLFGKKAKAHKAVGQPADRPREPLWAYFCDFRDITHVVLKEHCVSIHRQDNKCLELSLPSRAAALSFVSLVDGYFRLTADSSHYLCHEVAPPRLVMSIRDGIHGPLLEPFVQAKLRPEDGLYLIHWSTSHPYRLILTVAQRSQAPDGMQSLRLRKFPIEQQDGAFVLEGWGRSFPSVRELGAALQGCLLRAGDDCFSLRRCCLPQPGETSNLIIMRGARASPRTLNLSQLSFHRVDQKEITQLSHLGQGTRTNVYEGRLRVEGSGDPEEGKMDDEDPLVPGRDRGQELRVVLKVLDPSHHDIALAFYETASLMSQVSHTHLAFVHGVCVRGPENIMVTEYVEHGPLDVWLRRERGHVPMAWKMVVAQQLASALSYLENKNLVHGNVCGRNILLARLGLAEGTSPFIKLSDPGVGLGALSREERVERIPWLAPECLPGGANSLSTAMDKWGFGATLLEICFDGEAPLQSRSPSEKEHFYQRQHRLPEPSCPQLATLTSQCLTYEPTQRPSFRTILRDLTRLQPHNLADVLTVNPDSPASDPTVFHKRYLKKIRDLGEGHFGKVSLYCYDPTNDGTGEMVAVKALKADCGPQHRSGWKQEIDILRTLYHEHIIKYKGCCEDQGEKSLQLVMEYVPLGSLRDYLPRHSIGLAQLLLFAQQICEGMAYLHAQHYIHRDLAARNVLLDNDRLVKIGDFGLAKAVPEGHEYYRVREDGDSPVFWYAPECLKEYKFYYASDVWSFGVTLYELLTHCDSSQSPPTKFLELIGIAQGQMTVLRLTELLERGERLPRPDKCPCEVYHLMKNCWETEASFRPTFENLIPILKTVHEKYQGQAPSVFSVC

**Q.** Which results are given for `CC(C)=CCC/C(C)=C/Cc1c(O)c(CC=C(C)C)c2c(c1O)C(=O)C1=C[C@@H]3C[C@H]4C(C)(C)O[C@@](CC=C(C)C)(C3=O)[C@@]14O2` [GB32]?
**A.** IC50 (Tyk2): > 40 µM; inhibition of Tyk2 kinase activity (in words) (Tyk2): no effect; inhibition of JAK2 kinase activity (in words) (JAK2): minor inhibition; IC50 (JAK2; IC50, JAK2 enzyme): 37.3 ± 6.9 µM; inhibition of JAK3 kinase activity (in words) (JAK3): minor inhibition; IC50 (JAK3; IC50, JAK3 enzyme): 17.5 ± 1.5 µM; IC50 (JAK1): > 40 µM; inhibition of JAK1 kinase activity (in words) (JAK1): no effect; effect of Z-VAD cotreatment on compound-induced oligonucleosomal fragmentation (NCI-H1650 cells [1]): completely suppressed; apoptosis induction (oligonucleosomal fragmentation) (NCI-H1650 cells [1]; after 24 h): significant apoptosis; IC50 (NCI-H1650 cells [2]): 3.13 ± 0.3 µM

**Q.** How did the “inhibition of Tyk2 kinase activity (in words)” value (Tyk2) turn out when `CC(C)=CCC[C@@]1(C)C=Cc2c(O)c3c(c(CCC(C)(C)O)c2O1)O[C@]12C(=C[C@@H]4C[C@H]1C(C)(C)O[C@@]2(C/C=C(/C)C(=O)O)C4=O)C3=O` [GB39, 33-hydroxyepigambogic acid] was run?
**A.** minor inhibitory effects

**Q.** What about the IC50 (Tyk2; Tyk2 enzyme, read-out: IC50) of the same compound?
**A.** 13 ± 1.6 µM

**Q.** And the “difference in IC50s between JAK2 and Tyk2” value (JAK2)?
**A.** 10 fold

**Q.** And the “inhibition of JAK2 kinase activity (in words)” value (JAK2)?
**A.** significantly inhibited

**Q.** And the IC50 (JAK2; JAK2 enzyme, read-out: IC50)?
**A.** 1.7 ± 0.1 µM

**Q.** And the “inhibition of JAK3 kinase activity (in words)” value (JAK3)?
**A.** significantly inhibited

**Q.** And the IC50 (JAK3; JAK3 enzyme, read-out: IC50)?
**A.** 3.8 ± 0.3 µM

**Q.** And the “inhibition of JAK1 kinase activity (in words)” value (JAK1)?
**A.** minor inhibitory effects

**Q.** What about the IC50 (JAK1; JAK1 enzyme, read-out: IC50) of the same compound?
**A.** 12.2 ± 0.3 µM

**Q.** What about the “effect of Z-VAD cotreatment on compound-induced oligonucleosomal fragmentation” value (NCI-H1650 cells [1]) of the same compound?
**A.** completely suppressed

**Q.** And the “NCI-H1650 cells that underwent rapid apoptosis” value (NCI-H1650 cells [1])?
**A.** > 90%

**Q.** And the IC50 (NCI-H1650 cells [2])?
**A.** 1.26 ± 0.01 µM

**Q.** What does the source list for `CC(C)=CCC[C@@]1(C)C=Cc2c(O)c3c(c(C/C=C(\C)CO)c2O1)O[C@]12C(=C[C@@H]4C[C@H]1C(C)(C)O[C@@]2(C/C=C(/C)C(=O)O)C4=O)C3=O` [GB40, 35-hydroxyepigambogic acid]?
**A.** inhibition of Tyk2 kinase activity (in words) (Tyk2): minor inhibitory effects; IC50 (Tyk2; Tyk2 enzyme, read-out: IC50): 12.9 ± 0.9 µM; difference in IC50s between JAK2 and Tyk2 (JAK2): 10 fold; inhibition of JAK2 kinase activity (in words) (JAK2): significantly inhibited; IC50 (JAK2; JAK2 enzyme, read-out: IC50): 1.4 ± 0.1 µM; inhibition of JAK3 kinase activity (in words) (JAK3): significantly inhibited; IC50 (JAK3; JAK3 enzyme, read-out: IC50): 3.2 ± 0.2 µM; inhibition of JAK1 kinase activity (in words) (JAK1): minor inhibitory effects; IC50 (JAK1; JAK1 enzyme, read-out: IC50): 14.2 ± 0.4 µM; effect of Z-VAD cotreatment on compound-induced oligonucleosomal fragmentation (NCI-H1650 cells [1]): completely suppressed; NCI-H1650 cells that underwent rapid apoptosis (NCI-H1650 cells [1]): > 90%; IC50 (NCI-H1650 cells [2]): 1.07 ± 0.04 µM

**Q.** With `CC(C)=CCC/C(C)=C/Cc1c(O)c(CC=C(C)C)c2c(c1O)C(=O)C1=C[C@@H]3C[C@H]4C(C)(C)O[C@@](C/C=C(\C)C(=O)O)(C3=O)[C@@]14O2` [GB63] as the compound, how does the IC50 (NCI-H1650 cells [2]) read?
**A.** 2.66 ± 0.15 µM

**Q.** Which IC50 (NCI-H1650 cells [2]) does the source give for `CC(C)=CCC/C(C)=C/Cc1c(O)c(CC=C(C)C)c2c(c1O)C(=O)C1=C[C@@H]3C[C@H]4C(C)(C)O[C@@](C/C=C(\C)C=O)(C3=O)[C@@]14O2` [GB49] here?
**A.** 3.92 ± 0.13 µM
